Test: Agilent InfinityLab Poroshell 120 SB-C18, 100 × 2.1 mm, 2.7 µm, 40 °C, 0.2 mL/min, estimated dead time 1.1 min; A: water + 0.1% formic acid; B: acetonitrile; gradient (min/%B) 0/2 15/95 16/95
Conditions: stereoisomer not certain

| SMILES | LC retention time |
| --- | --- |
| NC(CCC(=O)NC(CSSCC(NC(=O)CCC(N)C(=O)O)C(=O)NCC(=O)O)C(=O)NCC(=O)O)C(=O)O (stereo unspecified) | 2.87 min |
| NCCCCNCCCN | 1.45 min |
| CCCCCC=CCC=CC=CC=CC(SCC(N)C(=O)NCC(=O)O)C(O)CCCC(=O)O (stereo unspecified) | 8.91 min |
| CCCC(O)CC(=O)O (stereo unspecified) | 12.4 min |
| CCCCCCCCCCCCCC=CC(O)C(N)CO (stereo unspecified) | 15.1 min |
| O=C(O)CC(O)C(=O)O (stereo unspecified) | 4.45 min |
| CCCCCCCCCC(O)CC(=O)O (stereo unspecified) | 6.12 min |
| CCCCCCCCCC=CC(=O)O | 12.7 min |
| CC(C)CC(N)C(=O)O (stereo unspecified) | 6.01 min |
| O=C(O)C(=O)Cc1ccccc1 | 1.62 min |
| CC(O)C=O (stereo unspecified) | 1.48 min |
| O=C(O)C1CCCN1 (stereo unspecified) | 1.41 min |
| CC(C)CCC=O | 1.62 min |
| CCCCCCCCCCCCCC=CC(O)C(COC1OC(CO)C(OC2OC(CO)C(O)C(O)C2O)C(O)C1O)NC(=O)CCCCCCCCCCCCCCCCCCCCC (stereo unspecified) | 2.36 min |
| CC12CCC3C(CCC4=CC(=O)CCC43CO)C1CCC2=O (stereo unspecified) | 6.37 min |
| C=C(CC)C(=O)O | 1.62 min |
| CCCCCCCCCCCCCCCC(=O)OC(CC(=O)[O-])C[N+](C)(C)C (stereo unspecified) | 15.6 min |
| CCC(C)C(N)C(=O)O (stereo unspecified) | 2.94 min |
| O=C(O)CCC(=O)O | 6.53 min |
| NC(=O)c1cccnc1 | 2.46 min |
| CC(O)C(=O)O (stereo unspecified) | 3.37 min |
| OCC(O)CO | 3.76 min |
| NCC(=O)O | 2.87 min |
| CC=CC(=O)O | 8.13 min |
| NC(=O)c1ncn(C2OC(COP(=O)(O)O)C(O)C2O)c1NC=O (stereo unspecified) | 1.34 min |
| CC(=O)C(=O)O | 2.51 min |

The remaining lines, values ahead:

| LC retention time | SMILES |
| --- | --- |
| 5.47 min | CC(=O)NC1C(OP(=O)(O)OP(=O)(O)OCC2OC(n3ccc(=O)[nH]c3=O)C(O)C2O)OC(CO)C(O)C1O (stereo unspecified) |
| 1.37 min | CC(=O)NC1C(O)OC(COP(=O)(O)O)C(O)C1O (stereo unspecified) |
| 1.34 min | O=C(CO)C(O)C(O)C(O)COP(=O)(O)O (stereo unspecified) |
| 4.62 min | Nc1ncnc2c1ncn2C1OC(CO)C(O)C1O (stereo unspecified) |
| 1.62 min | NC1C(O)OC(CO)C(O)C1O (stereo unspecified) |
| 13.5 min | NCC(=O)NC1OC(COP(=O)(O)O)C(O)C1O (stereo unspecified) |
| 11.7 min | CC(=O)SCCNC(=O)CCNC(=O)C(O)C(C)(C)COP(=O)(O)OP(=O)(O)OCC1OC(n2cnc3c(N)ncnc32)C(O)C1OP(=O)(O)O (stereo unspecified) |
| 4.1 min | OCC1OC(OC2(CO)OC(CO)C(O)C2O)C(O)C(O)C1O (stereo unspecified) |
| 1.37 min | COc1cc(C(O)C(=O)O)ccc1O (stereo unspecified) |
| 8.32 min | NC(=O)c1ncn(C2OC(COP(=O)(O)O)C(O)C2O)c1N (stereo unspecified) |
| 4.62 min | Nc1ccn(C2CC(O)C(COP(=O)(O)OP(=O)(O)OP(=O)(O)O)O2)c(=O)n1 (stereo unspecified) |
| 3.78 min | CC(O)(CC(=O)O)CC(=O)SCCNC(=O)CCNC(=O)C(O)C(C)(C)COP(=O)(O)OP(=O)(O)OCC1OC(n2cnc3c(N)ncnc32)C(O)C1OP(=O)(O)O (stereo unspecified) |
| 10.1 min | O=c1ccn(C2OC(COP(=O)(O)OP(=O)(O)OP(=O)(O)O)C(O)C2O)c(=O)[nH]1 (stereo unspecified) |
| 5.19 min | Nc1nc2c(ncn2C2CC(O)C(CO)O2)c(=O)[nH]1 (stereo unspecified) |
| 8.32 min | O=C(O)c1cc(=O)[nH]c(=O)n1C1OC(COP(=O)(O)O)C(O)C1O (stereo unspecified) |
| 13 min | O=c1ccn(C2OC(COP(=O)(O)OP(=O)(O)O)C(O)C2O)c(=O)[nH]1 (stereo unspecified) |
| 2.87 min | Nc1ncnc2c1ncn2C1OC(COP(=O)(O)OP(=O)(O)O)C(O)C1O (stereo unspecified) |
| 14.7 min | CC(CCCC(CO)COS(=O)(=O)O)C1CCC2C3C(O)CC4CC(O)CCC4(C)C3CC(O)C12C (stereo unspecified) |
| 1.34 min | NC(CC(=O)O)C(=O)O (stereo unspecified) |
| 2.51 min | O=C(O)C1CC(O)C=N1 (stereo unspecified) |
| 11.7 min | Nc1nc2c(ncn2C2CC(O)C(COP(=O)(O)OP(=O)(O)O)O2)c(=O)[nH]1 (stereo unspecified) |
| 12 min | OCC1OC(O)C(O)C(O)C1O (stereo unspecified) |
| 2.94 min | CC(=O)NC1C(O)OC(CO)C(O)C1O (stereo unspecified) |
| 13.3 min | CCCCCC(O)C=CC1C(O)CC(=O)C1CC=CCCCC(=O)O (stereo unspecified) |
| 1.37 min | O=P(O)(O)OCC1OC(O)C(O)C(O)C1O (stereo unspecified) |
| 2.51 min | O=c1[nH]cnc2nc[nH]c12 |
| 14.7 min | Cc1cn(C2CC(O)C(CO)O2)c(=O)[nH]c1=O (stereo unspecified) |
| 4.1 min | Nc1ccn(C2CC(O)C(CO)O2)c(=O)n1 (stereo unspecified) |
| 8.58 min | NC(=O)C1=CN(C2OC(COP(=O)(O)OP(=O)(O)OCC3OC(n4cnc5c(N)ncnc54)C(OP(=O)(O)O)C3O)C(O)C2O)C=CC1 (stereo unspecified) |
| 2.1 min | NC(CCC(=O)NC(CS)C(=O)NCC(=O)O)C(=O)O (stereo unspecified) |
